{"source": "patent US20230040247A1", "about": "“COMPOUNDS FOR TREATING NEURODEGENERATIVE DISEASES” (Amabiotics, priority 2019, published 2023)", "system": "endogenous a-synuclein phosphorylation at serine 129", "assay": "huPFFs-induced endogenous a-synuclein phosphorylation at serine 129 in primary cortical cultures (EP1536Y immunofluorescence)", "assay_type": "cell-based, mouse", "description": "The study was designed to evaluate the effects of queuine in an in vitro cell-based experimental model of synucleinopathy. The study aimed to evaluate the impact of queuine on the experimental synucleinopathy, in particular of the Lewy body type, induced by exogenous human preformed a-synuclein fibrils (huPFFs) in cortical cultures of wild-type (WT) mice (Volpicelli-Daley et al. (2011) Neuron. 72:57-7).\nQueuine was evaluated for its capability to afford protection against the induction of endogenous a-synuclein phosphorylation at serine 129 (a surrogate marker of de novo a-synuclein aggregation) triggered by exposure to exogenous human recombinant (unphosphorylated) a-synuclein preformed fibrils (huPFFs).\nPrimary cultures of dissociated cortices from embryonic day E18 WT mouse embryos were used as the biological system. Timed pregnant female mice were received from Charles River Laboratories 2 days before initiation of the primary culture. […] At 30 DIV, the neuronal cultures were fixed with PFA, and the effects of the treatments were evaluated by performing two double immunostainings: • (i) D37A6/Syn1 to detect total rodent a-synuclein/human plus rodent non aggregated a-synuclein; • (ii) EP1536Y/Syn211 to detect rodent and human a-synuclein phosphorylated at S129/total human a-synuclein.\nThe induction of a-synuclein phosphorylation was quantified by measuring the accumulation of phospho-a-synuclein (length of the phospho-a-synuclein-positive neurite network, number of phospho-a-synuclein positive cell bodies).\nThe experimental conditions were performed in quadruplicate (for compound-treated conditions+/−huPFFs) and triplicate (for controls+/−huPFFs) wells. An array of nine individual microscopic fields were acquired in each single well, and 3 channels were recorded for each field (green fluorescence excited @488 nm, red fluorescence excited @594 nm, and phase contrast). […]\nTo further evaluate the effects of queuine, the EP1536Y signal was segmented to quantify the phospho-a-synuclein positive neurites. […]", "data": [{"substance": "7-(3,4-trans-4,5-cis-dihydroxy-1-cyclopenten-3-ylaminomethyl)-7-deazaguanine [queuine]", "values": [{"measurement": "effect on untreated neurones (induction of synuclein phosphorylation at S129)", "setting": "WT mouse cortical neurones without huPFFs, concentration range tested (10 μM, 1 μM, 0.1 μM)", "result": "no effect"}, {"measurement": "EP1536Y immunofluorescence signal, representative of the phosphorylation of a-synuclein", "setting": "WT mouse cortical neurons exposed to 10 nM huPFFs, queuine pretreatment at 100 nM compared to control (FIG. 1)", "result": "decreased"}, {"measurement": "decrease of a-synuclein phosphorylation at S129 induced by huPFFs", "setting": "huPFFs-treated (10 nM) WT mouse cortical neurones, all doses tested (10 μM, 1 μM, 0.1 μM), normalised to huPFFs condition (FIG. 2), significant", "result": "approx. −50%"}]}]}
